The test system of this assay is HIV-1 strain NL4-3. Put plainly: p24 antigen inhibition in HIV-1 infected HUT-78 cells. The class given is cell-based. The conditions noted are these: for Expected % inhibition: assuming additive effect; for Observed % inhibition: p24, day 9. The procedure:
Control cells were pretreated in 3.5 ml maintenance media under the same conditions.
The tubes were centrifuged at 1200 rpm for 5 minutes to pellet the cells and each pellet was resuspended in 1 ml of stock HIV-1 strain NL4-3 (obtained from AIDS Research and Reference Reagent Program, Rockville, Md.) to obtain an MOI (multiplicity of infection) of about 0.05. The cells were incubated at 37° C. for 1 hour to allow viral adsorption to occur. […] These cells were centrifuged as above, the resulting pellets were resuspended in 1 ml of media and incubated for 1 hour at 37° C.
AZT (Burroughs Wellcome Co.) thawed from sterile stock aliquots was serially diluted in media and dispensed at a volume of 100 μl per well of microtiter plate for the cytotoxicity control wells, compound color control wells and the test wells. Treated and untreated infected and uninfected cells were dispensed at a volume of 100 μl per well. […]
The plates were incubated by 37° C. in 5% CO2.
On the 9th day, 20 μl supernatant was removed from above settled cells in the Test, Virus Control and Cell Control wells. The supernatant was assayed for the presence of p24 antigen using a Coulter Corporation p24 Antigen Test Kit in accordance with the manufacturter's directions.
% Observed Inhibition=[(VC-Test)/(VC)]×100
where VC is the mean p24 of the Virus Control wells; and
Test in the mean p24 of the Test wells.
% Expected Inhibition=X+Y(100-X)
Y is observed % inhibition of AZT.

Turning to `CC(=O)N[C@H](CCCNC(=N)N)C(=O)N[C@H](CCCNC(=N)N)C(=O)N[C@H](CCCNC(=N)N)C(=O)N[C@H](CCCNC(=N)N)C(=O)N[C@H](CCCNC(=N)N)C(=O)N[C@H](CCCNC(=N)N)C(=O)N[C@H](CCCNC(=N)N)C(=O)N[C@H](CCCNC(=N)N)C(=O)N[C@H](CCCNC(=N)N)C(N)=O` [4C, acetyl-[D-Arg]9 -NH2], the Expected % inhibition is reported as -412.7% (AZT 0 nM, 4C 0.001 μM); -256.2% (AZT 0 nM, 4C 0.003 μM); -22.8% (AZT 0 nM, 4C 0.01 μM); 5.9% (AZT 0 nM, 4C 0.03 μM); -177.0% (AZT 0 nM, 4C 0.1 μM); 25.5% (AZT 0 nM, 4C 0.3 μM). Also, the Expected % inhibition (AZT 0 nM, 4C 10 μM) stood at 21.9% and the Expected % inhibition (AZT 0 nM, 4C 30 μM) is 26.5%. For the same compound, the Observed % inhibition runs as follows: (AZT 0 nM, 4C 0.001 μM) -412.7%; (AZT 0 nM, 4C 0.003 μM) -256.2%; (AZT 0 nM, 4C 0.01 μM) -22.8%; (AZT 0 nM, 4C 0.03 μM) 5.9%; (AZT 0 nM, 4C 0.1 μM) -177.0%; (AZT 0 nM, 4C 0.3 μM) 25.5%. Besides, the Observed % inhibition reads like this: (AZT 0 nM, 4C 10 μM) 21.9%; (AZT 0 nM, 4C 30 μM) 26.5%.

For `Cc1cn([C@H]2C[C@H](N=[N+]=[N-])[C@@H](CO)O2)c(=O)[nH]c1=O` [AZT, azidothymidine, reference compound], the Expected % inhibition (AZT 10 nM, 4C 0 μM) is -406.1%; the Expected % inhibition (AZT 30 nM, 4C 0 μM) is listed as -437.4%; the Expected % inhibition (AZT 100 nM, 4C 0 μM) is -14.2%; the Expected % inhibition (AZT 300 nM, 4C 0 μM) was -9.8%; the Expected % inhibition (AZT 1000 nM, 4C 0 μM) was -7.7%. Moreover, the Observed % inhibition is recorded as -406.1% (AZT 10 nM, 4C 0 μM); -437.4% (AZT 30 nM, 4C 0 μM); -14.2% (AZT 100 nM, 4C 0 μM); -9.8% (AZT 300 nM, 4C 0 μM); -7.7% (AZT 1000 nM, 4C 0 μM).

For the origin of these results see US5674849A, “Anti-viral compositions” (priority 1995, dated 1997).
